Assay results reported in ChEMBL document CHEMBL1201862, “PubChem BioAssay data set” (2004).
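1) Cells in 96-well plates. 2) Compound, 48 h, 5 concentrations. 3) Linear interpolation between surrounding doses. 4) Unreached endpoint = highest concentration. GI50 marks 50% less growth.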 The source made the active and inactive calls. Cut-off read from the data, not from the text of the source: active = GI50 up to about 1.1 µM and inactive = higher.

How the values were obtained:
Assay in all cases: NCI tumour cell line growth inhibition, 48 h
A549 = test system: A549
BT-549 = test system: BT-549
CAKI-1 = test system: CAKI-1
DMS-114 = test system: DMS-114
EKVX = test system: EKVX
HL-60 = test system: HL-60
IGROV-1 = test system: IGROV-1
KM12 = test system: KM12
MCF7 = test system: MCF7
MDA-MB-231 = test system: MDA-MB-231
NCI-H226 = test system: NCI-H226
OVCAR-8 = test system: OVCAR-8
SK-MEL-5 = test system: SK-MEL-5
SN12C = test system: SN12C
SNB-19 = test system: SNB-19
SR = test system: SR
SW-620 = test system: SW-620
T47D = test system: T47D
TK-10 = test system: TK-10
UO-31 = test system: UO-31

Measured: GI50

CCOC(=O)CN1C(=O)c2cc([N+](=O)[O-])cc3cc([N+](=O)[O-])cc(c23)C1=O
inactive: A549 > 100 µM | BT-549 > 28.6 µM | CAKI-1 30.5 µM | DMS-114 57.7 µM | EKVX > 100 µM | HL-60 1.71 µM | IGROV-1 > 66.1 µM | KM12 > 100 µM | MCF7 > 84.7 µM | MDA-MB-231 45.4 µM | NCI-H226 45.4 µM | OVCAR-8 27.9 µM | SK-MEL-5 27.3 µM | SN12C 14.7 µM | SNB-19 > 83.4 µM | SR 1.45 µM | SW-620 68.5 µM | T47D > 100 µM | TK-10 > 100 µM | UO-31 28.7 µM
